Laboratory results from US20220401452A1, “USE OF INHIBITORS OF ENHANCER OF ZESTE HOMOLOG 2” (The Board Of Regents of The University of Texas System, priority 2019, published 2022).

Assays:
[1] = system: DU145 cells; test: Gene expression by RNA-Seq in DU145 cells; format: cell-based, human; conditions: 5 μM, 72 hrs
Description: (§1) Blue bars represent the percentage of genes in each specific functional category. The red line represents values of the false discovery rate (FDR) for the particular GO term. […] Two analyses were carried out to rule out the possible off-targeted effect of EZH2i on gene regulation. First, transcriptional profiles were compared in abl being treated with either EZH2i or in which EZH2 had been silenced using RNA interference (RNAi). Pharmacologic and genetic inhibition of EZH2 shared highly similar gene expression patterns.
(§2) Analysis of EZH2 Inhibitor Mediated Gene Expression by RNA-Seq. […] RNA-seq library was prepared using Illumina True-seq RNA sample preparation kit and sequenced to 50 bp using Illumina Hi-seq platform. RNA-seq data was mapped to human genome (hg19) using TopHat version 2.0.6. […] Differentially expressed genes were first filtered using LFC>0.5 or <−0.5, and then top 200 genes were selected through ranking by their p-values. The authentic target genes of EZH2 in abl cells were defined as those showing similar expression changes upon either EZH2 silencing or inhibitor treatment.

[2] = system: C4-2B, LAPC4-CR and LNCaP-AI cells; test: RT-qPCR of selected genes in C4-2B, LAPC4-CR and LNCaP-AI; format: cell-based, human; conditions: 5 μM, 72 hrs
Description: The expression of these genes was examined in three other EZH2i-sensitive CRPC cell lines: C4-2B, LAPC4-CR and LNCaP-AI. FIG. 2D is a heat map of quantitative real-time RT-qPCR results showing changes in mRNA levels of selected gene in three prostate cancer cell lines (C4-2B, LAPC4-CR, and LNCaP-AI). […] EZH2-activated genes and EZH2-repressed genes are grouped together. […] Numbers, triplicates of samples from control or treatment group.
RNA isolation and RT-qPCR. RNA was extracted and purified using the TRIzol Reagent combined with RNeasy Mini Kit (Qiagen) according to manufacturer's protocols. 2 μg of total RNAs were then used for cDNA synthesis using High Capacity cDNA Reverse Transcription Kit (Applied Biosystems). Real-time quantitative RT-PCR was performed, and gene expression was calculated as described previously, using the formula 2-ΔΔCt relative to the level of GAPDH as the internal control.

[3] = system: H3K27 methylation in prostate cell lines; test: Western blot of H3K27 methylation levels in prostate cell lines; format: cell-based, human; conditions: all tested prostate cell lines; 1 or 5 μM
Description: In view of the canonical function of EZH2 in catalyzing H3K27me3, the mechanisms of how repressive chromatin mark contribute to the growth and gene inhibitory effects of EZH2i were investigated. […] Discrepancies between EZH2i-induced H3K27me3 reduction and cell insensitivity to EZH2i were also reported in lymphoma cells.

[4] = system: abl cells; test: Gene expression by RNA-Seq in abl cells; format: cell-based, human; conditions: 5 μM, 72 hrs
Description: as §1, §2

[5] = system: DU145 cells; test: Alkaline comet assay after ionizing radiation in DU145 cells; format: cell-based, human; conditions: 5 μM pretreatment 7 days, recovery 4 hrs
Description: (§3) EZH2i can be administered to sensitize CRPC cells to DNA damage repair (DDR) agents. To validate this, abl, LNCaP and DU145 cells were exposed to increasing doses of ionizing radiation (IR). […] FIG. 6A is a graphical representation of the alkaline comet assays in abl cells. Prostate cancer cells were pretreated with vehicle (DMSO) or 5 μM GSK126 (GSK) for 7 days, and then exposed to increasing dosages of ionizing radiation (IR) followed by recovery for 4 hrs. FIG. 6B is a set of photographic images of each IR dosage corresponding to the dosages in FIG. 6A. FIG. 6C is a graphical representation of the alkaline comet assays in LNCaP cells. […]
(§4) FIG. 15A is a graphical representation of the alkaline comet assay results in abl cells after pretreatment with vehicle (DMSO) or 5 μM GSK126 (GSK) for 7 days and then being exposed to 5 gray (Gy) ionizing radiation (IR) followed by recovery at indicated time points (Quantification of the results using “Olive Tail Moment” parameter). […] FIG. 15C is a graphical representation of the alkaline comet assay results in LNCaP cells after pretreatment with vehicle (DMSO) or 5 μM GSK126 (GSK) for 7 days and then being exposed to 5 gray (Gy) ionizing radiation (IR) followed by recovery at indicated time points (Quantification of the results using “Olive Tail Moment” parameter). […]

[6] = system: LNCaP cells; test: Alkaline comet assay after ionizing radiation in LNCaP cells; format: cell-based, human; conditions: 5 μM pretreatment 7 days, recovery 4 hrs
Description: as §3, §4

[7] = system: CWR22Rv1 xenografts; test: Test of EZH2 inhibitors in CWR22Rv1 xenograft mouse model; format: in vivo, castrated nude mice
Description: FIG. 1F is a growth curve of xenograft tumors in castrated nude mice injected with CWR22Rv1 cells receiving vehicle (Veh) or GSK126, at the indicated doses.
Test of EZH2 Inhibitors in Xenograft Mouse Model. Male nude mice (Taconic) were castrated after 3 days of accommodation. CWR22Rv1 xenografts were established in the flanks of mice by injecting ˜2 million cells in 50% Matrigel (BD Biosciences). […] Tumors were measured 3 times every week and harvested after 3 weeks. Frozen samples were subjected to RT-qPCR and immunoblotting to study the expression of selected genes. All animal protocols were approved by the Beth Israel Deaconess Institutional Animal Care and Use Committee, and the experiments were performed in accordance with institutional and national guidelines.

[8] = system: abl cells; test: Alkaline comet assay after ionizing radiation in abl cells; format: cell-based, human; conditions: 5 μM pretreatment 7 days
Description: as §3, §4

[9] = system: DU145 cells; test: Growth curve of DU145 cells; format: cell-based, human; conditions: FIG. 9A
Description: Genetic inhibition of EZH2 suppressed growth of CRPC cells better than that of androgen-dependent prostate cancer cells. As EZH2 is a druggable enzyme with available small-molecule inhibitors, the efficacy of EZH2-targeting drugs was assessed in prostate cancer cells. […] Cells were grouped based on the basic characteristics. ADPC is androgen-dependent prostate cancer, and CRPC is castration-resistant prostate cancer. Concentrations as low as 500 nM of the EZH2 inhibitors (EZH2i) greatly retarded the growth of castration-resistant abl cells. […] Relatively higher doses of EZH2i were required to suppress the androgen-dependent LNCaP cells. […] This was consistent with a previous report that neither PC3 nor DU145 requires EZH2 for continued growth.

[10] = system: 668 cancer cells lines of various types; conditions: CTRP data, cited from earlier work

SMILES | gene expression pattern in EZH2i-insensitive DU145 cells [1] | expression of EZH2-repressed genes [2] | total H3K27 di- and tri-methylation levels [3] | gene expression pattern in abl cells [4] | difference in sensitivity to ionizing radiation (comet assay) [5] | difference in sensitivity to ionizing radiation (comet assay) [6] | xenograft tumor growth ([7]; CWR22Rv1 subcutaneous xenografts, castrated mice, daily injection, 21 days of treatment) | mRNA and protein levels of EZH2-activated genes in xenograft tumor tissues ([7]; CWR22Rv1 xenografts) | DNA damage repair after 5 Gy IR (Olive Tail Moment over recovery time) [8] | sensitivity to increasing doses of ionizing radiation (comet assay) ([8]; recovery 4 hrs) | inhibitory effect on growth of AR-null DU145 [9] | potency by EZH2 mutation status ([10]; GOF vs LOF p=0.2705, GOF vs None p=1.000) | sensitivity of cell lines by expression of DNA repair genes ([10]; top 25% highest vs bottom 25% lowest expression)
CC[C@H](C)n1cc(C)c2c(C(=O)NCc3c(C)cc(C)[nH]c3=O)cc(-c3ccc(N4CCNCC4)nc3)cc21 [GSK126] | largely de-repressed genes | upregulated EZH2-repressed genes to some extent | reduced total H3K27 di- and tri-methylation levels in a dose-dependent manner | a large number of genes were significantly downregulated | non-existent | very minor | significantly retarded tumor growth | consistent decrease | drastically delayed DNA damage repair | became much more sensitive to IR | minimal | – | –
CCN(c1cc(-c2ccc(CN3CCOCC3)cc2)cc(C(=O)NCc2c(C)cc(C)[nH]c2=O)c1C)C1CCOCC1 [EPZ-6438] | largely de-repressed genes | upregulated EZH2-repressed genes to some extent | reduced total H3K27 di- and tri-methylation levels in a dose-dependent manner | a large number of genes were significantly downregulated | – | – | – | – | – | – | minimal | – | –
C[C@H]1CN([C@@H](C)CO)S(=O)(=O)c2ccc(C#CCC3CCCC3)cc2O[C@@H]1CN(C)Cc1ccc(C(=O)O)cc1 [BRD] | – | – | – | – | – | – | – | – | – | – | – | does not show higher potency | much more susceptible
